Data on three compounds can be found in patent US4859669A, “Antiinflammatory and anti-hyperproliferative naphthyridin-4-ones” (Schering Corporation, priority 1987, dated 1989).

What is called ED50 is the midpoint of the dose-response relation. The term inhibition denotes the relative decrease from the control value, in per cent.

Like-named read-outs stand apart in the source and are kept apart here.

The test system of experiment [1] is Male Lewis inbred albino rats. The experiment in a line: Reversed passive Arthus reaction (RPAR), rat paw volume. The class given is in vivo. Conditions: po, 1 h, dosed one hour prior to sensitization with BSA. How it is done: REVERSED PASSIVE ARTHUS REACTION (RPAR) ANIMALS, MATERIALS AND METHODS
Male Lewis inbred albino rats weighting 180-220 grams obtained from Charles River Breeding Laboratories are used in these experiments. The rats are housed 3 animals/cage and food and water are allowed ad libitum. The animals are numbered 1-3 in each cage and color marked for identification purposes.
All reagents and drugs are prepared just prior to the study. Crystallized and lyophilized bovine serum albumin (BSA), obtained from Sigma Chemical Company, is solubilized without shaking in cold sterile pyrogen free saline (10 mg/ml). Lyophilized anti-bovine serum albumin (IgG Fraction), obtained from Cappel Laboratories, is suspended in sterile distilled water and diluted with cold pyrogen free saline (PFS) just prior to use. The final concentration of anti-bovine serum albumin is 0.5 mg/ml of PFS. Both BSA and anti-BSA solutions are iced during use. Drugs are suspended or solubilized in an aqueous solution of methyl cellulose (MC) with a homogenizer just prior to administration.
Groups of animals (6/group) are dosed with drug in MC by gavage one hour prior to sensitization with BSA. […] The volume of mercury displaced is converted to weight and recorded. […] Paw volumes are also recorded with a plethysmograph during the development of the inflammation at 2 and 4 hours post-challenge.

In a further experiment the test system is pleural cavity of rats. The experiment in a line: Reverse passive Arthus reaction in the pleural cavity of rats (Myers et al.). The class given is in vivo. Conditions: po; rat. An excerpt:
Another procedure for testing for acute antiinflammatory activity measures the reverse passive Arthus reaction in the pleural cavity of rats as described in Myers et al., Inflammation, Vol. 9, No. 1, 1985, pp. 91-98.

The target of a further experiment is T1, 5-lipoxygenase (Rattus norvegicus, UniProt P12527).
T1 construct: endogenous in cells; host or cells: neutrophils isolated from the pleural exudate of male Wistar-Lewis rats (given "Witar-Lewis" in the source) after BSA / anti-BSA challenge
T1 sequence (P12527 1-673): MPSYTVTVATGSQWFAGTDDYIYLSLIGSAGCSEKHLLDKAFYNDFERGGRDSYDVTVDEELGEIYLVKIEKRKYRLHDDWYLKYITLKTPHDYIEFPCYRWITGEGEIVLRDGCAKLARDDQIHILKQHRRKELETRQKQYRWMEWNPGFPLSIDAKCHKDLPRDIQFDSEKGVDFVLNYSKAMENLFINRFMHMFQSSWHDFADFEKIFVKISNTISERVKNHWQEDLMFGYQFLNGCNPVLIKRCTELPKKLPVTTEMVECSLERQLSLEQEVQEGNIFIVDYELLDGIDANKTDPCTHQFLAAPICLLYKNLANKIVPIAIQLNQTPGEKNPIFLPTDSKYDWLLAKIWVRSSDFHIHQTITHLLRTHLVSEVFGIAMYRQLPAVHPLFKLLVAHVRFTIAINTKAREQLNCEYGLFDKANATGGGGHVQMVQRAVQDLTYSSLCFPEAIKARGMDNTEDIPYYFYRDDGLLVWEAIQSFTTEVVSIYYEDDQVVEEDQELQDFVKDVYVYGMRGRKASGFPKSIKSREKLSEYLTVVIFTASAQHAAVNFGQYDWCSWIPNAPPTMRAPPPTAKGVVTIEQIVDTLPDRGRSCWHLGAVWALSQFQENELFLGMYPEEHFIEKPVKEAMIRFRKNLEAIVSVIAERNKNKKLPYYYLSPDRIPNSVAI
The experiment in a line: Lipoxygenase assay: arachidonic acid metabolism in rat neutrophils. The experiment is classed as cell-based. Conditions: compound 5×10^-5 Molar. On the procedure:
The effect of the compounds of the invention on 5-lipoxygenase activity is determined using rat neutrophils. Male Witar-Lewis rats are injected intravenously with 5 mg BSA in 0.2 ml pyrogen free saline followed by an intrapleural injection of 500 ug of the IgG fraction of rabbit anti-BSA (Cappel Labs., Lot 17782) in 0.2 ml pyrogen free saline. Injections are made under light ether anesthesia. Four hours later, the pleural cavity exudate consisting of 85 to 95% neutrophils is removed. Neutrophils are isolated from the pleural exudates by centrifugation of 4° C. for 10 min at 200× g. The cell pellet is resuspended in 17 mM Tris is HCl buffer, pH 7.2, containing 0.75% NH4 Cl to lyse contaminating erythrocytes followed by centrifugation at 4° C. for 5 min at 200× g. The pelleted neutrophils are rewashed in 50 mM Tris HCl, pH 7.4, containing 100 mM NaCl, followed by the same centrifugation. The cell pellet is resuspended in 50 mM Tris HCl, pH 7.4, containing 100 mM NaCl and 1 mM CaCl2, at 3-12×10^7 intact neutrophils per ml.
Solutions of compounds in methanol are dried, then resuspended in the cell suspension for 4 min. Arachidonic acid methabolism is determined by incubating 0.1 ml of this suspension with 40 μM [1-^14 C] arachidonic acid (AA) (Amersham, 59 Ci/mole), in the presence of 0.1% BRIJ 56 and 10 μM A23187. Arachidonic acid metabolism as well as the various drug and reagent abbreviations are described in detail in Arch. Dermatol, Vol. 119, pages 541 to 547 (July 1983), the teachings of which are incorporated herein by reference. Assays run in triplicate are initiated by adding cells with inhibitor to a film of the BRIJ 56, arachidonic acid and A23187 37° C. After one minute, reactions are terminated by the addition of 2.4 ml of a chloroform:methanol (1:1 v/v) mixture and 0.9 ml of 0.1% formic acid. […] Products, leukotriene B4 (LTB4), 12-hydroxy heptadecatrienoic acid (HHT) and 5-hydroxy icosatetraenoic acid (5-HETE), are located by autoradiography and appropriate regions of the thin layer plates are scraped and counted in a liquid scintillation counter. […]

In the case of `O=c1c2c(c3cccnc3n1-c1ccccc1)NCC2` [1,2,3,5-tetrahydro-5-phenyl-4H-pyrrolo[3,2-c][1,8]naphthyridin-4-one], the ED50 in experiment [1] was around 25 mg/kg; with pleural cavity of rats, below 25 mg/kg.
As to `O=c1c2c(c3cccnc3n1-c1ccccc1)N(c1ccccc1)CC2` [1,2,3,5-tetrahydro-1,5-diphenyl-4H-pyrrolo[3,2-c][1,8]napthyridin-4-one], the inhibition at 50 µM is 60% at 5-lipoxygenase (read-out: inhibition of HETE production), around 40% on 5-lipoxygenase (read-out: inhibition of HHT production) and 60% at 5-lipoxygenase (read-out: inhibition of LTB4 production).
In the case of `CCOC(=O)N1CCc2c1c1cccnc1n(-c1ccccc1)c2=O` [2,3,4,5-tetrahydro-4-oxo-5-phenyl-1H-pyrrolo[3,2-c][1,8]napthyridine-1-carboxylic acid, ethyl ester], the ED50 in the experiment on pleural cavity of rats is around 25 mg/kg.
